{"source": "patent US5725871A", "about": "“Drug delivery compositions comprising lysophosphoglycerolipid” (Danbiosyst UK Limited, priority 1989, dated 1998)", "conditions": "sheep, intranasal 2.0 IU/kg insulin, LPG versus LPC", "method": "The sheep were divided into 4 groups of 5 animals each. Group 1 received 2.0 IU/kg insulin together with 2.0 mg/kg SMS 45/25 microspheres (Pharmacia) and 0.2 mg/kg LPC (Formulation 1) intranasally in the form of a lyophilised powder. A sheep of 50 kg thus received 100 IU of insulin together with 100 mg SMS 45/25 microspheres and 10.0 mg LPC. Group 2 received 2.0 IU/kg insulin together with 2.0 mg/kg SMS 45/25 microspheres and 0.2 mg/kg LPG Formulation 2) intranasally in the form of a lyophilised powder. A sheep of 50 kg thus received 100 IU of insulin together with 100 mg SMS 45/25 microspheres and 10.0 mg LPG. Group 3 received 2.0 IU/kg insulin together with 0.02 mg/kg LPC (Formulation 3) intranasally in the form of a solution at 0.01 ml/kg. A sheep of 50 kg thus received 100 IU of insulin together with 1.0 mg LPC in a volume of 0.5 ml. Group 4 received 2.0 IU/kg insulin together with 0.02 mg/kg LPG (Formulation 4) intranasally in the form of a solution at 0.01 ml/kg. A sheep of 50 kg thus received 100 IU of insulin together with 1.0 mg LPG in a volume of 0.5 ml. […]\nSedation/Blood Sampling: For the intranasal studies, the sheep were sedated by use of an i.v. dose of ketamine hydrochloride (Ketalar (Regd. T.M.), 100 mg/ml injection) at 2.25 mg/kg. […] Each blood sample was divided into two parts and analysed as in Example 1."}
{"substance": "L-α-lysophosphatidyl-DL-glycerol [LPG]", "values": [{"measurement": "Plasma glucose levels", "result": "lower (i.e. better) with LPG"}]}
